Values quoted from earlier work in patent US11234933B1, “Surface-modified emulsomes for intranasal delivery of drugs” (King Abdulaziz University, priority 2020, dated 2022).

Conditions: oral route, first pass

CCOC(=O)C1=C[C@]2(CC)CCCN3CCc4c(n1c1ccccc41)[C@@H]32 [VIN, Vinpocetine]
VIN hepatic metabolism: ~75%
